Source: patent publication US6627603B1, “Method for releasing an active principle contained a multiple emulsion” (Centre National de la Recherche Scientifiquue (C.N.R.S.), priority 1997, dated 2003)

Key:
Assay type in all cases: physicochemical
[1] = Transfer of inverse-emulsion water droplets to an aqueous surfactant phase, detected by AgCl precipitate
Description: In a first step, a monodisperse water-in-dodecane inverse emulsion which is stabilized with Span 80® (sorbitan monooleate from the company Sigma) is prepared. This emulsion is prepared by slowing introducing the disperse aqueous phase (80% by volume) with gentle shearing (of the order of 1000 s^−1) into a continuous phase composed of a dodecane/Span 80 mixture in a 1/1 ratio by weight. Sodium chloride NaCl (0.1M), intended to simulate the presence of the active principle in the aqueous phase A1, is added. Advantageously, it has been shown that the presence of this salt reinforces the stability of the inverse emulsion Ei (Aronson M. P., Petko M. F., J. Colloid Interface Sci., 1993, 159, 134). The initial polydisperse emulsion is converted by a fractional crystallisation technique (Bibette J., J. Colloid Interface Sci., 1991, 147, 474) into a monodisperse emulsion.
Several multiple emulsions were subsequently prepared from this inverse emulsion by mixing it with an aqueous solution comprising sodium dodecyl sulphate (SDS, HLB=40) at various concentrations below or greater than its critical micelle concentration, which is 8×10^−3 mol/l.
The test consists in carefully bringing together (over an area of 1 cm^2) equivalent volumes (1 cm^3) of the inverse emulsion and of water comprising variable amounts of SDS surfactant and a concentration of AgNO3 at a concentration of 10^−3 mol/l. The transfer of the water present in the inverse droplets to the macroscopic aqueous phase is detected by observation of an AgCl precipitate which is formed at the macroscopic interface when the internal contents transfer to the external phase. This is because, when the water droplets move via a coalescence phenomenon from the upper inverse emulsion to the lower aqueous phase, the upper phase gradually becomes transparent whereas the lower phase gradually becomes milky.
Above this limit concentration, the water droplets quickly transfer (in less than 48 hours) within the second phase. […]

[2] = Potentiometric determination of salt (KCl) release from a monodisperse double emulsion
Description: A monodisperse water-in-dodecane inverse emulsion which is stabilized with Span 80 is prepared.
The aqueous phase (80% by volume) is introduced with gentle shearing (of the order of 1000 s^−1) into a continuous phase composed of a dodecane/Span mixture (1:1 by mass). The aqueous phase comprises 1 mol per liter of potassium chloride. This salt acts as active substance which has to be released. The initial polydisperse emulsion is converted by a fractional crystallisation technique, so as to obtain a monodisperse emulsion (Bibette J., J. Colloid Interface Sci., 1991, 147, 474).
The preceding inverse emulsion is emulsified in its turn in an aqueous phase comprising a hydrophilic surface active agent (SDS). A double emulsion is thus obtained composed of oily globules comprising water droplets, which droplets result from the first stage.
The double emulsion is manufactured using a microfluidizer (Jet homogenizer from Labplant). This method consists in bringing the disperse phase and the continuous phase into contact under very high pressure and in then injecting the mixture via a hole with a small diameter (0.1 mm).
The concentration of the KCl initially incorporated in the internal aqueous phase of the double emulsion is measured in the external aqueous phase by potentiometry.
The potentiometric quantitative determination is based on the measurement of a difference in potential between an indicator electrode (Ag/AgCl) and a reference electrode (mercurous sulphate electrode) which are immersed in the colloidal solution comprising the electrolyte to be quantitatively determined (Cl^− ion). The concentration of the Cl^− ion is in this case directly related to the potential ΔE of the Ag/AgCl electrode by a relationship of the type:
ΔE=β+α log Cq (Nernst relationship).
It is then possible, via a calibration line, to know at any moment the concentration of Cl^− ion released into the external aqueous phase.
The results obtained are presented in graphical form in FIG. 1. […]

[3] = Stability of the multiple emulsion versus surfactant concentration in the external phase (microscope)
Description: In this test, a multiple emulsion is prepared by dispersing the inverse emulsion in a continuous aqueous phase comprising the SDS surfactant at a concentration equal to one tenth of its critical micelle concentration. The inverse phase is the same as that described above in Example 1: the fraction by volume of water drops is present therein at a concentration of 10% by volume with 0.1 mol/l of NaCl for a concentration of surfactant of 2%. The multiple emulsion is therefore composed of 90% by volume of an external aqueous phase and of 10% of the inverse phase. A high degree of shearing, of the order of 10,000 revolutions per minute, is applied using an Ultra-turrax device for 10 seconds to a total volume of […] of the overall composition, which results in the appearance of double drops in which the water content and the size of the droplets are retained.
Double drops are observed, with each of them comprising small inverse water drops.
This test is repeated, the concentration of the surfactant within the external aqueous phase Ce being varied and the double emulsion being freshly prepared, and the duration of existence of the internal water droplets is recorded. […] This transition takes place for exactly the same concentration as that mentioned in Example 1, that is to say approximately 10 CMC. […] It is thus observed, under a microscope, that only phenomena of coalescence between the tiny inverse water drops and the interface of the direct drops are responsible for the change which is observed.
Only a gradual decrease in the concentration of internal droplets is observed.

[4] = Characteristic release time by phase-contrast optical microscopy; details: assessed visually using a microscope
Description: Various emulsions are prepared according to the procedure defined in Example No. 1. The concentration of the surface-active agent (SDS) present in the external aqueous phase is varied and the change over time of the double emulsion is observed with a phase-contrast optical microscope (Zeiss Axiovert 100). The curve in FIG. 2 describes the change in the characteristic release time as a function of the concentration of surface-active agent present in the external aqueous phase. The characteristic release time is defined as the time at the end of which virtually all the droplets of phase A1 have been released into the external aqueous phase A2 (by coalescence). As indicated, this time is assessed visually using a microscope. It will be noted that the release time changes from several days, when the concentration is less than 10 CMC, to only a few hours, when the concentration is equal to 40 CMC.

[5] = Multiple emulsions with Tween 80 in aqueous phase A2: transfer of internal water droplets; details: Tween 80 as surfactant in aqueous phase A2
Description: Multiple emulsions are prepared according to the procedure described in the preceding examples by using Tween 80 in the aqueous phase A2 as surfactant. Its HLB is 15 and its critical micelle concentration is […]. The same type of result is observed. Transfer of the internal water droplets is also dependent on the concentration Ce of the surfactant in the external phase. In this case, the limit concentration is approximately 200 CMC.
It is observed for this surfactant that the internal water droplets coalesce with one another. This instability appears rapidly and results in a few internal water drops with a greater surface area, still imprisoned in the oily globules.

limit concentration for transfer of the internal water droplets [5]	Structure (SMILES)	time for transfer of the water droplets within the second phase ([1]; above the limit concentration (approximately 10 CMC))	concentration at which transfer via coalescence takes place ([1]; same test with gentle centrifuging for 15 minutes) [CMC]	limit concentration of surfactant below which the water droplets do not transfer to the second phase ([1]; water-in-dodecane inverse emulsion (Span 80, NaCl 0.1M) on water with AgNO3 10^−3 mol/l, no transfer even for several days below the limit)	concentration threshold ([2]; KCl double emulsion, globules 4 μm, droplets 0.3 μm) [CMC]	time corresponding to complete release of the salt ([2]; SDS concentration greater or equal to 10 CMC, KCl 1 mol per liter in internal phase, release by coalescence)	release of the salt into the external aqueous phase ([2]; SDS concentration less than 10 CMC, passive diffusion, emulsion retains its double nature)	coalescence between the big double globules ([3]; SDS at one tenth of its CMC in external phase, after storage for two months)	period of time for conversion into a direct emulsion ([3]; SDS concentration above the transition (approximately 10 CMC))	duration for which the double emulsion is retained ([3]; SDS concentration below the transition (approximately 10 CMC))	concentration at which the double emulsion is converted into a direct emulsion (transition) ([3]; freshly prepared double emulsion, NaCl 0.1 mol/l internal phase, Span 80 2%)	characteristic release time ([4]; SDS concentration equal to 40 CMC)	characteristic release time ([4]; SDS concentration less than 10 CMC)
–	CCCCCCCCCCCCOS(=O)(=O)[O-].[Na+] [SDS, sodium dodecyl sulphate]	less than 48 hours	10	approximately 10 CMC	10	less than 500 minutes	very slow	No phenomenon of coalescence	a few hours	more than one month	approximately 10 CMC	a few hours	several days
approximately 200 CMC	CCCCCCCC/C=C\CCCCCCCC(=O)OCCOCC(OCCO)C1OCC(OCCO)C1OCCO (stereo not shown) [Tween 80]	–	–	–	–	–	–	–	–	–	–	–	–
